Here are results for six compounds from patent publication US20020122813A1, “Insect attractants” (priority 1999, published 2002).

Entries after “also recorded” stand apart in the source; their conditions may differ.

One test deals with Anopheles gambiae s.s. Description: wind tunnel landing bioassay on heated glass cylinders with filter papers. The test is classed as in vivo. As to conditions: for landing response compared to water control, comparative bioassay of α-oxo-carboxylic acids: FIG. 5, 6 replicates. The protocol: Trials used either Aedes aegypti or the Tanzanian KWA strain of Anopheles gambiae s.s., both obtained from the London School of Hygiene and Tropical Medicine. The rearing and bioassay rooms were maintained at 27° C. ±2° and 70% RH ±10%. […] To circumvent this problem we concentrated on investigating the landing responses of An gambiae s.s. on heated glass cylinders treated with sweat and sweat extracts. The bioassay was conducted in a wind tunnel^9 that was connected to 2 identical flight chambers, stainless steel frames 1.0 m long, covered in thin gauge plastic tubing and sealed at both ends with mosquito netting, FIG. 1. Twenty, 5-8 day old An gambiae s.s. females were introduced into each flight chamber. The mosquitoes were activated with 2 pulses of carbon dioxide, diluted with filtered air to give pulses of 0.1% above background. Activated mosquitoes flew upwind and approached heated (34° C., human skin temperature) glass cylinders to which strips of filter paper were attached. […] All bioassays began on the 3rd hour of the night period (21.00 h). To collect sweat, strips of filter paper were strapped around the leg, just above the ankle, of a human volunteer for 24 h. A strip of sweat impregnated filter paper was placed onto one cylinder and a filter paper dampened with […] of distilled water was placed onto the second, the control, cylinder The bioassay was repeated 6 times, the position of the sweat and the control filter papers alternated between bioassays. […] The response to the sweat declined during the bioassay, FIG. 3A, and is probably due to the evaporation of behaviourally active volatiles.

The test system of the next test is Aedes aegypti. Described as above. The test is classed as in vivo. As to conditions: in water at 1 μg/μl; FIG. 4. On the procedure:
Trials used either Aedes aegypti or the Tanzanian KWA strain of Anopheles gambiae s.s., both obtained from the London School of Hygiene and Tropical Medicine. The rearing and bioassay rooms were maintained at 27° C. ±2° and 70% RH ±10%. The rearing room was kept on a 12/12 light dark cycle of 170 Wm^−2 and 0.3 Wm^−2 respectively with a 30 minute dusk period of 0.5 Wm^−2 at the day night interface.
To circumvent this problem we concentrated on investigating the landing responses of An gambiae s.s. on heated glass cylinders treated with sweat and sweat extracts. The bioassay was conducted in a wind tunnel^9 that was connected to 2 identical flight chambers, stainless steel frames 1.0 m long, covered in thin gauge plastic tubing and sealed at both ends with mosquito netting, FIG. 1. Twenty, 5-8 day old An gambiae s.s. females were introduced into each flight chamber. The mosquitoes were activated with 2 pulses of carbon dioxide, diluted with filtered air to give pulses of 0.1% above background. Activated mosquitoes flew upwind and approached heated (34° C., human skin temperature) glass cylinders to which strips of filter paper were attached. The number of mosquitoes landing per minute on each filter paper was recorded for 10 min by infra-red sensitive video cameras situated downwind of the flight chambers. All bioassays began on the 3rd hour of the night period (21.00 h). […]

The test system of a further test is Ae aegypti. As to conditions: structural activity relationship study of lactic acid analogues; cited from earlier work.

For the compound `CCCC(=O)C(=O)O` [2-oxopentanoic acid], the “landing response compared to water control, comparative bioassay of α-oxo-carboxylic acids” value in the test on Anopheles gambiae s.s. is “greatest response”. Further, the “time of peak of landing response” value with Anopheles gambiae s.s. (during 10 min bioassay) came out at 4 min. Further, the “total number of landings (TNL)” value in the test with Anopheles gambiae s.s. (in water at 1 μg/μl vs water control) was 352. For the same compound, the “landing response compared to control (significance)” value in the test with Anopheles gambiae s.s. (in water at 1 μg/μl vs water control, P<0.001) was “did elicit significant levels of landings”. Further, in the test on Aedes aegypti, the “landing response (significance)” value is given as “elicited significant levels of landings; also recorded: did elicit significant levels of landings”. For the same compound, the “attractiveness relative to lactic acid” value in the test on Ae aegypti is recorded as “as attractive as lactic acid”.
In the case of `CC(C)C(=O)C(=O)O` [3-methyl,2-oxobutanoic acid], in the test on Anopheles gambiae s.s., the “landing response compared to water control, comparative bioassay of α-oxo-carboxylic acids” value is recorded as “did elicit significant levels of landings”.
Consider `CCO` [ethanol], for which the “total number of landings (TNL)” value with Anopheles gambiae s.s. (ethanol vs blank control) came to 141. In addition, the “landing response compared to control (significance)” value with Anopheles gambiae s.s. (ethanol vs blank control, P>0.05) is reported as “not a significant difference”.
In the case of `CC(O)C(=O)O` (stereo not drawn) [lactic acid, L(+) lactic acid (2-hydroxypropanoic), reference compound], in the test with Anopheles gambiae s.s. (in ethanol at 0.2 μg/μl vs ethanol control), the “total number of landings (TNL)” value turned out to be 167. Also, the “landing response compared to control (significance)” value with Anopheles gambiae s.s. (in ethanol at 0.2 μg/μl vs ethanol control, P>0.05) is on record as “did not elicit significant levels of landings”.
Turning to `CCC(=O)C(=O)O` [oxobutanoic acid], the “landing response compared to water control, comparative bioassay of α-oxo-carboxylic acids” value in the test with Anopheles gambiae s.s. was “did elicit significant levels of landings”.
The same measure, in the same setting: the entry for `CC(=O)C(=O)O` [oxopropanoic acid] is “did elicit significant levels of landings”.
